Laboratory results published in US20110245284A1, “Alkoxy- and Alkylthio-Substituted Anilinopyrimidines” (Bayer CropScience AG, priority 2008, published 2011).

What was measured:
Leptosphaeria nodorum = Leptosphaeria nodorum test (wheat) / protective; type: in vivo; conditions: Parastagonospora nodorum, active compound concentration 500 ppm, evaluation 7-9 days after inoculation, read-out: efficacy
Procedure: Thereafter, the plants are placed in a greenhouse at 90% relative atmospheric humidity and a temperature of 22° C.

[1] = logP by LC-MS on reversed-phase columns (C 18), method [b], acidic range pH 2.7; type: physicochemical; conditions: for chromatographic logP: pH 2.7, log p
Procedure: (§1) The logP values were determined in accordance with EEC Directive 79/831 Annex V.A8 by HPLC (High Performance Liquid Chromatography) on reversed-phase columns (C 18), using the methods below:
[b] The LC-MS determination in the acidic range is carried out at pH 2.7 using the mobile phases 0.1% aqueous formic acid and acetonitrile (contains 0.1% formic acid), linear gradient from 10% acetonitrile to 95% acetonitrile.

[2] = logP by LC-MS on reversed-phase columns (C 18), method [c], neutral range pH 7.8; type: physicochemical
Procedure: as §1
[c] The LC-MS determination in the neutral range is carried out at pH 7.8 using the mobile phases 0.001 molar aqueous ammonium bicarbonate solution and acetonitrile, linear gradient from 10% acetonitrile to 95% acetonitrile.

[3] = method [b], LC-MS, acidic range pH 2.7
[4] = method [c], LC-MS, neutral range pH 7.8

CC[S+]([O-])C(C)c1cccc(Nc2ncc(Cl)c(NC3CC3)n2)c1 (centres unmarked) [Example 74]
pest or weed control at 500 ppm (Leptosphaeria nodorum): ≥ 70%
chromatographic logP [1]: 1.48
chromatographic logP ([2]; pH 7.8): 2.16

COCc1cccc(Nc2ncc(Cl)c(N3CCOCC3)n2)c1 [Example 90]
log p ([1]; pH 2.7): 2.4[b]
log p ([2]; pH 7.8): 2.87[c];

CCCSc1cccc(Nc2ncc(Br)c(NC3CC3C)n2)c1 (centres unmarked) [Example 99]
log p [1, 3]: 3.83[b]
log p [2, 4]: 5.09[c];

CCCCSc1cccc(Nc2ncc(Br)c(NC3CCC3)n2)c1 [Example 104]
pest or weed control at 500 ppm (Leptosphaeria nodorum): ≥ 70%
chromatographic logP [1]: 4.57
chromatographic logP ([2]; pH 7.8): 5.71

CCCS(=O)(=O)c1cccc(Nc2ncc(Br)c(NC3CC3)n2)c1 [Example 110]
pest or weed control at 500 ppm (Leptosphaeria nodorum): ≥ 70%
chromatographic logP [1]: 2.43
chromatographic logP ([2]; pH 7.8): 2.99

CCCC[S+]([O-])c1cccc(Nc2ncc(C(F)(F)F)c(NC3CC3)n2)c1 (centres unmarked) [Example 122]
chromatographic logP [1]: 2.94
chromatographic logP ([2]; pH 7.8): 3.02

CCCCS(=O)(=O)c1cccc(Nc2ncc(Cl)c(NC3CC3)n2)c1 [Example 123]
pest or weed control at 500 ppm (Leptosphaeria nodorum): ≥ 70%
chromatographic logP [1]: 2.65
chromatographic logP ([2]; pH 7.8): 3.18

CCCCSc1cccc(Nc2ncc(C(F)(F)F)c(NC3CCC3)n2)c1 [Example 128]
pest or weed control at 500 ppm (Leptosphaeria nodorum): ≥ 70%
chromatographic logP [1]: 5.55
chromatographic logP ([2]; pH 7.8): 5.78

COC(C)c1cccc(Nc2ncc(Cl)c(NC(C)C3(Cl)CC3)n2)c1 (centres unmarked) [Example 130]
log p ([1]; pH 2.7): 3.72[b]
log p ([2]; pH 7.8): 4.65[c];

CCCC(C)SC(C)c1cccc(Nc2ncc(Cl)c(NC3CC3)n2)c1 (centres unmarked) [Example 134]
log p ([1]; pH 2.7): 4.24[b]
log p ([2]; pH 7.8): 5.55[c];

CCCC(C)SC(C)c1cccc(Nc2ncc(C(F)(F)F)c(NC3CC3)n2)c1 (centres unmarked) [Example 135]
log p ([1]; pH 2.7): 5.53[b]
log p ([2]; pH 7.8): 5.8[c];

CCN(c1nc(Nc2cccc(COC)c2)ncc1Cl)C1CC1 [Example 137]
log p ([1]; pH 2.7): 3.24[b]
log p ([2]; pH 7.8): 4.23[c];

CCCC[S+]([O-])c1cccc(Nc2ncc(Br)c(NC3CCC3)n2)c1 (centres unmarked) [Example 152]
log p ([1]; pH 2.7): 2.67[b]
log p ([2]; pH 7.8): 3.5[c];

CCS(=O)(=O)C(C)c1cccc(Nc2ncc(Br)c(NC3CC3)n2)c1 (centres unmarked) [Example 154]
log p ([1]; pH 2.7): 1.76[b]
log p ([2]; pH 7.8): 2.7[c];

CCCSc1cccc(Nc2ncc(C(F)(F)F)c(NC3CCC3)n2)c1 [Example 155]
pest or weed control at 500 ppm (Leptosphaeria nodorum): ≥ 70%
chromatographic logP [1]: 5.01
chromatographic logP ([2]; pH 7.8): 5.43

CC(C)CS(=O)(=O)c1cccc(Nc2ncc(Cl)c(NC3CC3)n2)c1 [Example 161]
pest or weed control at 500 ppm (Leptosphaeria nodorum): ≥ 70%
chromatographic logP [1]: 2.64
chromatographic logP ([2]; pH 7.8): 3.23

CCCC(C)S(=O)(=O)C(C)c1cccc(Nc2ncc(Cl)c(NC3CC3)n2)c1 (centres unmarked) [Example 165]
log p ([1]; pH 2.7): 2.48[b]
log p ([2]; pH 7.8): 3.56[c];

CCCC(C)[S+]([O-])C(C)c1cccc(Nc2ncc(Cl)c(NC3CC3)n2)c1 (centres unmarked) [Example 166]
log p ([1]; pH 2.7): 2.2[b]
log p ([2]; pH 7.8): 3.1[c];

CCCC(C)[S+]([O-])C(C)c1cccc(Nc2ncc(C(F)(F)F)c(NC3CC3)n2)c1 (centres unmarked) [Example 167]
log p ([1]; pH 2.7): 3.34[b]
log p ([2]; pH 7.8): 3.85[c];

CCCCS(=O)(=O)c1cccc(Nc2ncc(Cl)c(NC3CCC3)n2)c1 [Example 170]
pest or weed control at 500 ppm (Leptosphaeria nodorum): ≥ 70%
chromatographic logP [1]: 3.09
chromatographic logP ([2]; pH 7.8): 3.69

CNc1nc(Nc2cccc(COC)c2)ncc1Cl [Example 172]
chromatographic logP [1]: 1.18
chromatographic logP ([2]; pH 7.8): 2.44

CCOCCOCCSc1cccc(Nc2ncc(Cl)c(NC3CC3)n2)c1 [Example 180]
log p ([1]; pH 2.7): 2.58[b]
log p ([2]; pH 7.8): 3.63[c];

COCCOCCOc1ccc(Nc2ncc(C(F)(F)F)c(NC3CC3)n2)cc1C(F)(F)F [Example 182]
log p ([1]; pH 2.7): 3.52[b]
log p ([2]; pH 7.8): 3.79[c];

CCOCCOc1ccc(Nc2ncc(Cl)c(NC3CC3)n2)cc1C(F)(F)F [Example 185]
chromatographic logP [1]: 2.91
chromatographic logP ([2]; pH 7.8): 4

CCC(C)Sc1cccc(Nc2ncc(C(F)(F)F)c(NC3CC3)n2)c1 (centres unmarked) [Example 188]
pest or weed control at 500 ppm (Leptosphaeria nodorum): ≥ 70%
chromatographic logP [1]: 4.9
chromatographic logP ([2]; pH 7.8): 5.01

CCOCCSc1cccc(Nc2ncc(Cl)c(NC3CC3)n2)c1 [Example 189]
pest or weed control at 500 ppm (Leptosphaeria nodorum): ≥ 70%
chromatographic logP [1]: 2.7
chromatographic logP ([2]; pH 7.8): 3.76

CCCCS(=O)(=O)c1cccc(Nc2ncc(C(F)(F)F)c(NC3CCC3)n2)c1 [Example 202]
pest or weed control at 500 ppm (Leptosphaeria nodorum): ≥ 70%
chromatographic logP [1]: 3.91
chromatographic logP ([2]; pH 7.8): 4.01

COCCOC(c1cccc(Nc2ncc(Cl)c(NC3CC3)n2)c1)C(F)(F)F (centres unmarked) [Example 215]
log p ([1]; pH 2.7): 2.63[b]
log p ([2]; pH 7.8): 3.61[c];

COCCOC(c1cccc(Nc2ncc(C(F)(F)F)c(NC3CC3)n2)c1)C(F)(F)F (centres unmarked) [Example 216]
log p ([1]; pH 2.7): 3.72[b]
log p ([2]; pH 7.8): 3.9[c];

COCCOC(c1cccc(Nc2ncc(Br)c(NC3CC3)n2)c1)C(F)(F)F (centres unmarked) [Example 217]
log p ([1]; pH 2.7): 2.85[b]
log p ([2]; pH 7.8): 3.76[c];

COC(C)c1cccc(Nc2ncc(Br)c(NC3CC3C)n2)c1 (centres unmarked) [Example 226]
log p [1, 3]: 2.5[b]
log p [2, 4]: 3.98[c];

COC(C)c1cccc(Nc2ncc(C(F)(F)F)c(NC3CC3C)n2)c1 (centres unmarked) [Example 229]
pest or weed control at 500 ppm (Leptosphaeria nodorum): ≥ 70%
chromatographic logP [1]: 3.61
chromatographic logP ([2]; pH 7.8): 4.1

CCSc1cccc(Nc2ncc(C(F)(F)F)c(NC3CCC3C)n2)c1 (centres unmarked) [Example 233]
chromatographic logP [1]: 4.89
chromatographic logP ([2]; pH 7.8): 5.27

CCSc1cccc(Nc2ncc(C(F)(F)F)c(NC3CC(C)C3)n2)c1 (centres unmarked) [Example 234]
pest or weed control at 500 ppm (Leptosphaeria nodorum): ≥ 70%
chromatographic logP [1]: 4.09
chromatographic logP ([2]; pH 7.8): 5.34

CCCSc1cccc(Nc2ncc(C(F)(F)F)c(NC3CC3C)n2)c1 (centres unmarked) [Example 235]
pest or weed control at 500 ppm (Leptosphaeria nodorum): ≥ 70%
chromatographic logP [1]: 4.9
chromatographic logP ([2]; pH 7.8): 5.23

CCOC(C)c1cccc(Nc2ncc(Br)c(NC3CC3C)n2)c1 (centres unmarked) [Example 240]
log p [1, 3]: 2.89[b]
log p [2, 4]: 4.42[c];

CC[S+]([O-])c1cccc(Nc2ncc(C(F)(F)F)c(NC3CC(C)C3)n2)c1 (centres unmarked) [Example 242]
chromatographic logP [1]: 2.98
chromatographic logP ([2]; pH 7.8): 3.32

COCCOC(C)c1cccc(Nc2ncc(Cl)c(NC3CC3)n2)c1 (centres unmarked) [Example 243]
chromatographic logP [1]: 2
chromatographic logP ([2]; pH 7.8): 3.26

CC[S+]([O-])c1cccc(Nc2ncc(C(F)(F)F)c(NC3CCC3C)n2)c1 (centres unmarked) [Example 244]
chromatographic logP [1]: 2.9
chromatographic logP ([2]; pH 7.8): 3.3

CCCS(=O)(=O)c1cccc(Nc2ncc(C(F)(F)F)c(NC3CC3C)n2)c1 (centres unmarked) [Example 245]
chromatographic logP [1]: 3.43
chromatographic logP ([2]; pH 7.8): 3.61

CCC[S+]([O-])c1cccc(Nc2ncc(C(F)(F)F)c(NC3CC3C)n2)c1 (centres unmarked) [Example 246]
chromatographic logP [1]: 2.9
chromatographic logP ([2]; pH 7.8): 3.23

COCCCOC(C)c1cccc(Nc2ncc(C(F)(F)F)c(NC3CC3)n2)c1 (centres unmarked) [Example 254]
chromatographic logP [1]: 3.49
chromatographic logP ([2]; pH 7.8): 3.98

COCCOC(C)c1cccc(Nc2ncc(C(F)(F)F)c(NC3CC3)n2)c1 (centres unmarked) [Example 257]
chromatographic logP [1]: 3.05
chromatographic logP ([2]; pH 7.8): 3.61

CCOC(C)c1cccc(Nc2ncc(C(F)(F)F)c(NC3CC3)n2)c1 (centres unmarked) [Example 258]
chromatographic logP [1]: 3.6
chromatographic logP ([2]; pH 7.8): 4.12

CCSC(C)c1cccc(Nc2ncc(Cl)c(NC3CCC3C)n2)c1 (centres unmarked) [Example 259]
chromatographic logP [1]: 3.59
chromatographic logP ([2]; pH 7.8): 5.3
